Measurements: patent US9073905B2, “Rock inhibitors” (Amakem NV, priority 2011, dated 2015)
“Also recorded” adds a separate entry of the source.

Legend:
ROCK2 = ROCK2 (Homo sapiens, UniProt O75116); assay: Kinase inhibition (ROCKI & ROCKII), radiometric 33P-ATP biochemical assay
Procedure: On-target activity against ROCK was measured in a biochemical assay, using the following reagents: Base Reaction buffer; 20 mM Hepes (pH 7.5), 10 mM MgCl2, 1 mM EGTA, 0.02% Brij35, 0.02 mg/ml BSA, 0.1 mM Na3VO4, 2 mM DTT, 1% DMSO. Required cofactors are added individually to each kinase reaction. The reaction procedure first involved the preparation of a peptide substrate in a freshly prepared reaction buffer. Required cofactors were then added to the substrate solution. ROCK (1 nM final concentration) was then delivered to the substrate solution. After gentle mix, DMSO solutions of the test compounds were added to the enzyme. Substrate mix ^33P-ATP (specific activity 0.01 μCi/μl final) was then delivered into the reaction mixture to initiate the reaction. The kinase reaction was incubated for 120 min. at room temperature. Reactions were then spotted onto P81 ion exchange paper (Whatman #3698-915). Filters were washed extensively in 0.1% Phosphoric acid. A radiometric count was then performed and IC50 values were subsequently determined.
The IC50 values obtained (in accordance with the protocol set forth above) are represented as follows: “+++” means IC50 below 0.1 μM, “++” means IC50 between 0.1 μM and 1 μM; “+” means IC50 between 1 and 10 μM and “ND” means “not determined yet”.

[1] = Stability assay in human plasma; assay type: in vitro ADME; conditions: 1 μM compound, LC-MS/MS, read-out: t½ human plasma
Procedure: (§1) Compounds are incubated at a concentration of 1 μM in rat (mice or rabbit) or human plasma. Samples are taken at fixed time points and the remnant of compound is determined by LC-MS/MS after protein precipitation. Half life is expressed in minutes.

[2] = system: MLC-T18/S19 phosphorylation; assay: Myosin light chain phosphorylation assay (ELISA) in A7r5 cells; assay type: cell-based, Rat; conditions: for EC50: MLC-T18/S19 phosphorylation, A7r5 cells, serum-free medium; for functional activity in the MLC phosphorylation assay (in words): FIG. 1
Procedure: Rat smooth muscle cell line A7r5 is used. The endogenous expression of ROCK esults in a constitutive phosphorylation of the regulatory myosin light chain at T18/S19. A7r5 cells were plated in DMEM supplemented with 10% FCS in multiwall cell culture plates. After serum starvation overnight, cells were incubated with compounds in serum-free medium.
Quantification of MLC-T18/S19 phosphorylation is assesses in 96 well-plates via ELISA using a phspho-MLC-T18/S19 specific antibody and a secondary detection antibody. Raw data were converted into percent substrate phosphorylation relative to high controls, which were set to 100%.
EC50 values were determined using GraphPad Prism 5.01 software using a nonlinear regression curve fit with variable hill slope.
The EC50 values obtained (in accordance with the protocols set forth above) are represented as follows: “+++” means EC50 below 0.3 μM, “++” means EC50 between 0.3 μM and 1 μM; “+” means EC50 between 1 and 10 μM and “−” means EC50>10 μM.

[3] = Stability assay in rabbit aqueous humor; assay type: in vitro ADME; conditions: for half-life at 1 μM: rabbit, read-out: t½ AH
Procedure: Compounds are incubated at a concentration of 1 μM in rabbit aqueous humor (AH). Samples are taken at fixed time points and the remnant of compound is determined by LC-MS/MS after protein precipitation. Half life is expressed in minutes.

[4] = Stability in plasma, species not stated; assay type: in vitro ADME; conditions: for half-life at 1 μM: read-out: t½ Plasma
Procedure: as §1

[5] = Stability towards drug metabolizing enzymes in lung S9; assay type: in vitro ADME, human; conditions: comparison table; for half-life at 1 μM: human, lung S9 (from smokers), read-out: t½ lung S9
Procedure: A 1 μM solution of the ROCK inhibitors is incubated with a reaction mixture containing lung S9 (from smokers) as well as the cofactors NADPH, UDPGA, PAPS and GSH. Samples are collected at 0, 15, 30 and 60 minutes post incubation. Negative control samples incubated with ROCK inhibitors and S9 fraction in the absence of cofactors are run in parallel. By using LC-MS/MS analysis, the percent of ROCK compounds remaining at each time point, the metabolic half-life of the ROCK compounds (expressed in minutes) and the metabolic half-life of the control compounds are determined.

[6] = ROCK 1 nM, 120 min at room temperature
[7] = aqueous humor, 1 μM in rabbit aqueous humor
[8] = comparison table, plasma species not given
[9] = aqueous humor, comparison table, aqueous humor

Sequence of ROCK2 (O75116 whole entry, species assumed): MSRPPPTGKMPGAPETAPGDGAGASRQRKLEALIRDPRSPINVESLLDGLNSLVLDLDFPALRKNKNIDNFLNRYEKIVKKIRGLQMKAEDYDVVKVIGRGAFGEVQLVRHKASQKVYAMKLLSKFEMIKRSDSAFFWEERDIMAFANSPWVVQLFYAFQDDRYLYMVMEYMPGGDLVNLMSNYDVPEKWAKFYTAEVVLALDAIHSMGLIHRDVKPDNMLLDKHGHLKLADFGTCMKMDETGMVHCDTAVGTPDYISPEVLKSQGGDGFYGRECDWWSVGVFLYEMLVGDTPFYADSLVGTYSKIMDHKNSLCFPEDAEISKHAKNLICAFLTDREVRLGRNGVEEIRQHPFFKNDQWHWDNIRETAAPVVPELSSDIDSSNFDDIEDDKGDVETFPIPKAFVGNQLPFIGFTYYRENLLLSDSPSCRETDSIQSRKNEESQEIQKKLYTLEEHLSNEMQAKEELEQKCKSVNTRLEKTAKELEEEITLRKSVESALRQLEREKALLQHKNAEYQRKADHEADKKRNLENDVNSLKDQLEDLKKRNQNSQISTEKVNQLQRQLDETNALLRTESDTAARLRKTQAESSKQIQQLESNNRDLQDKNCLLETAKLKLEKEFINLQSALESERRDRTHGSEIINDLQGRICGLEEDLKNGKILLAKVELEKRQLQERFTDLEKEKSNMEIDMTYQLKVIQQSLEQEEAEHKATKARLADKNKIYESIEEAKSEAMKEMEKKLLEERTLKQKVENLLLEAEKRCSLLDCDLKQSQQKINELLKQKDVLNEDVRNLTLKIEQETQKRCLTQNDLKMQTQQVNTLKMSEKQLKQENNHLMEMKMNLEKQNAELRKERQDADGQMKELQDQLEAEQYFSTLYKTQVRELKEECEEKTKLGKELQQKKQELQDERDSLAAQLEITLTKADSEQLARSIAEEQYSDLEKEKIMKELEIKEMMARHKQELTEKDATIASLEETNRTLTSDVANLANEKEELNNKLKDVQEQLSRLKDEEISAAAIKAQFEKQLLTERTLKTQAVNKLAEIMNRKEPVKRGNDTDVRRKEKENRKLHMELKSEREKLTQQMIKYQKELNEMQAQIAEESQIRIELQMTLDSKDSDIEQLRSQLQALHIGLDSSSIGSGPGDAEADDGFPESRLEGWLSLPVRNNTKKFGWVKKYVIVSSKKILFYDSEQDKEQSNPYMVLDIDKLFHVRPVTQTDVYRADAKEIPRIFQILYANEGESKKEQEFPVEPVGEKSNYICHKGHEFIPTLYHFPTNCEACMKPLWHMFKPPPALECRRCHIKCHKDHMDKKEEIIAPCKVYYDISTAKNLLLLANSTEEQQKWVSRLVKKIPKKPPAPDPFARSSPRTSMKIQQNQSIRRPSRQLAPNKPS

Row | Compound | IC50 (ROCK2; [6]) [nM] | half-life at 1 μM [1] [min] | half-life at 1 μM [3, 7] [min] | other results
1 | O=C(Oc1ccccc1)c1cccc(CN2CCCC(Nc3cccc4cnccc34)C2)c1 (centres unmarked) [Compound 3] | 100 to 1000 | 19 | – | –
2 | COC(=O)c1cccc(CN2CCCC(Nc3cccc4cnccc34)C2)c1 (centres unmarked) [Compound 8] | 100 to 1000 | – | – | –
3 | O=C(OCCO)c1cccc(CN2CCCC(Nc3ccc4[nH]ncc4c3)C2)c1 (centres unmarked) [Compound 19] | < 100 | – | – | EC50 ([2]; Rattus norvegicus): 300 to 1000 nM
4 | COC(=O)Cc1cccc(NC(=O)c2cccc(CN3CCC(Nc4cccc5cnccc45)C3)c2)c1 (centres unmarked) [Compound 33] | < 100 | < 4 | 59 | –
5 | COC(=O)c1cccc(CN2CCC(Nc3cccc4cnccc34)C2)c1 (centres unmarked) [Compound 20] | < 100 | – | – | –
6 | O=C(OCc1ccccc1)c1cccc(CN2CCCC(Nc3ccc4[nH]ncc4c3)C2)c1 (centres unmarked) [Compound 18] | < 100 | 26 | – | –
7 | O=C(OCCO)c1cccc(CN2CCCC(Nc3cccc4cnccc34)C2)c1 (centres unmarked) [Compound 5] | < 100 | – | – | –
8 | CCCOC(=O)c1cccc(CN2CCCC(Nc3cccc4cnccc34)C2)c1 (centres unmarked) [Compound 13] | 100 to 1000 | – | – | –
9 | O=C1OCC(CCNC(=O)c2cccc(CN3CCCC(Nc4ccc5[nH]ncc5c4)C3)c2)O1 (centres unmarked) [Compound 29] | < 100 | < 5 | > 120 | –
10 | O=C(O)c1cccc(CN2CCCC(Nc3ccc4[nH]ncc4c3)C2)c1 (centres unmarked) [Met1, 3-({3-[(1H-indazol-5-yl)amino]piperidin-1-yl}methyl)benzoic acid] | – | – | – | functional activity in the MLC phosphorylation assay (in words) [2]: functionally inactive compound; also recorded: devoid of functional activity; EC50 ([2]; Rattus norvegicus): > 10000 nM
11 | O=C(OCC1CCCO1)c1cccc(CN2CCCC(Nc3cccc4cnccc34)C2)c1 (centres unmarked) [Compound 15] | < 100 | 5 | – | EC50 ([2]; Rattus norvegicus): 1000 to 10000 nM
12 | O=C1OCC(CCNC(=O)c2cccc(CN3CCCC(Nc4cccc5cnccc45)C3)c2)O1 (centres unmarked) [Compound 27] | < 100 | 4 | 111 | –
13 | COC(=O)c1ccc(NC(=O)c2cccc(CN3CCC(Nc4cccc5cnccc45)C3)c2)cc1 (centres unmarked) [Compound 35] | < 100 | – | > 120 | –
14 | COC(=O)c1ccc(NC(=O)c2cccc(CN3CCCC(Nc4cccc5cnccc45)C3)c2)cc1 (centres unmarked) [Compound 25] | – | – | > 120 | –
15 | COCCOC(=O)Cc1cccc(CN2CCCC(Nc3ccc4[nH]ncc4c3)C2)c1 (centres unmarked) [Compound 12] | < 100 | – | – | –
16 | COC(=O)c1ccc(CN2CCCC(Nc3ccc4[nH]ncc4c3)C2)[nH]1 (centres unmarked) [Compound 24] | < 100 | – | – | –
17 | COC(=O)Cc1ccc(NC(=O)c2cccc(CN3CCCC(Nc4cccc5cnccc45)C3)c2)cc1 (centres unmarked) [Compound 34] | < 100 | – | > 120 | –
18 | COC(=O)Cc1ccc(NC(=O)c2cccc(CN3CCC(Nc4cccc5cnccc45)C3)c2)cc1 (centres unmarked) [Compound 36] | < 100 | 24 | > 120 | –
19 | CCOC(=O)c1cccc(CN2CCC(Nc3cccc4cnccc34)C2)c1 (centres unmarked) [Compound 21] | 100 to 1000 | – | – | –
20 | O=C(OCC1CC1)c1cccc(CN2CCCC(Nc3cccc4cnccc34)C2)c1 (centres unmarked) [Compound 1] | < 100 | 49 | – | –
21 | COC(=O)c1ccc(CN2CCCC(Nc3ccc4[nH]ncc4c3)C2)s1 (centres unmarked) [Compound 23] | < 100 | – | – | –

Row | Compound | IC50 (ROCK2; [6]) [nM] | half-life at 1 μM [1] [min] | half-life at 1 μM [3, 7] [min] | other results
22 | COC(=O)Cc1ccc(NC(=O)Cc2cccc(CN3CCCC(Nc4ccc5[nH]ncc5c4)C3)c2)cc1 (centres unmarked) [Compound 44] | < 100 | < 5 | – | –
23 | COC(=O)c1cccc(CN2CCCC(Nc3ccc4[nH]ncc4c3)C2)c1 (centres unmarked) [Compound 7] | < 100 | – | – | EC50 ([2]; Rattus norvegicus): 1000 to 10000 nM
24 | COC(=O)Cc1ccc(NC(=O)c2cccc(CN3CCCC(Nc4ccc5[nH]ncc5c4)C3)c2)cc1 (centres unmarked) [Compound 40] | – | 40 | > 120 | –
25 | CCCOC(=O)c1cccc(CN2CCCC(Nc3ccc4[nH]ncc4c3)C2)c1 (centres unmarked) [Compound 9] | < 100 | – | – | EC50 ([2]; Rattus norvegicus): 300 to 1000 nM
26 | O=C(OCC1CC1)c1cccc(CN2CCCC(Nc3ccc4[nH]ncc4c3)C2)c1 (centres unmarked) [Compound 17] | < 100 | 25 | > 120 | half life in plasma (in words) ([4]; point C.2.1): short half life; functional activity in the MLC phosphorylation assay (in words) [2]: display functional activity; EC50 ([2]; Rattus norvegicus): 300 to 1000 nM; inhibitory activity against ROCK (in words) (ROCK2; summary of point C1.1): strong inhibitory activity; half-life in aqueous humor compared with plasma (in words) ([3]; text summary of point C.2.3): significantly longer half-life in aqueous humor than in plasma
27 | COC(=O)c1cccc(NC(=O)c2cccc(CN3CCCC(Nc4ccc5[nH]ncc5c4)C3)c2)c1 (centres unmarked) [Compound 37] | < 100 | – | > 120 | –
28 | CCSC(=O)c1cccc(CN2CCCC(Nc3ccc4[nH]ncc4c3)C2)c1 (centres unmarked) [Compound 16] | < 100 | – | – | –
29 | CCOC(=O)COc1cccc(CN2CCCC(Nc3ccc4[nH]ncc4c3)C2)c1 (racemic) [Compound 1.060, reference compound] | – | – | – | t½ Plasma [4, 8]: <5 min; half-life at 1 μM [4, 8]: < 5 min; IC50 (ROCK2; comparison table): 7 nM; t½ lung S9 [5]: <5 min; half-life at 1 μM [5]: < 5 min; t½ AH ([3]; comparison table, aqueous humor): <5 min; half-life at 1 μM [3, 9]: < 5 min
30 | COC(=O)Cc1cccc(NC(=O)Cc2cccc(CN3CCCC(Nc4ccc5[nH]ncc5c4)C3)c2)c1 (centres unmarked) [Compound 42] | < 100 | < 5 | – | –
31 | COC(=O)c1ccc(NC(=O)c2cccc(CN3CCCC(Nc4ccc5[nH]ncc5c4)C3)c2)cc1 (centres unmarked) [Compound 39] | – | – | > 120 | –
32 | COC(=O)Cc1cccc(CN2CCCC(Nc3ccc4[nH]ncc4c3)C2)c1 (centres unmarked) [Compound 11] | < 100 | – | – | –
33 | COC(=O)c1cccc(NC(=O)Cc2cccc(CN3CCCC(Nc4ccc5[nH]ncc5c4)C3)c2)c1 (centres unmarked) [Compound 41] | < 100 | 10 | > 120 | –
34 | CCSC(=O)c1cccc(CN2CCCC(Nc3cccc4cnccc34)C2)c1 (centres unmarked) [Compound 6] | 100 to 1000 | – | – | –
35 | O=C(OCc1ccccc1)c1cccc(CN2CCCC(Nc3cccc4cnccc34)C2)c1 (centres unmarked) [Compound 2] | 100 to 1000 | 53 | – | –
36 | COC(=O)Cc1cccc(NC(=O)c2cccc(CN3CCCC(Nc4cccc5cnccc45)C3)c2)c1 (centres unmarked) [Compound 31] | – | < 5 | > 120 | –
37 | COC(=O)c1ccc(NC(=O)Cc2cccc(CN3CCCC(Nc4ccc5[nH]ncc5c4)C3)c2)cc1 (centres unmarked) [Compound 43] | – | – | > 120 | –
38 | O=C(Oc1ccccc1)c1cccc(CN2CCCC(Nc3ccc4[nH]ncc4c3)C2)c1 (centres unmarked) [Compound 10] | < 100 | < 5 | – | –
39 | CCCOC(=O)Cc1cccc(CN2CCCC(Nc3ccc4[nH]ncc4c3)C2)c1 (centres unmarked) [Compound 4] | < 100 | – | – | –
40 | CS(=O)(=O)Nc1cccc(CN2CCCC(Nc3ccc4[nH]ncc4c3)C2)c1 (centres unmarked) [Compound 1.091, reference compound] | – | – | – | half-life at 1 μM [4, 8]: > 120 min; degradation in the tested media, including plasma (in words) ([4]; plasma, aqueous humor, lung S9): not degraded at a significant rate; IC50 ([2]; Rattus norvegicus, A7R5, comparison table, MLC phosphorylation, read-out: IC50 MLC-PP): 110 nM; IC50 (ROCK2; comparison table): 2.4 nM; half-life at 1 μM [5]: > 240 min; half-life at 1 μM [3, 9]: > 120 min
41 | COC(=O)Cc1cccc(NC(=O)c2cccc(CN3CCCC(Nc4ccc5[nH]ncc5c4)C3)c2)c1 (centres unmarked) [Compound 38] | – | – | > 120 | –
42 | COC(=O)c1cccc(NC(=O)c2cccc(CN3CCCC(Nc4cccc5cnccc45)C3)c2)c1 (centres unmarked) [Compound 30] | < 100 | – | > 120 | –
